Assay results published in patent publication US8592403B2, “Diazepine and diazocane compounds as MC4 agonists” (Pfizer Limited, priority 2008, dated 2013).

Columns and labels:
MC4 receptor = MC4 receptor (Homo sapiens, UniProt P32245); experiment: MC4 EC50 functional potency (protocol E of US2005/0176772 / WO 2005/077935); assay type: cell-based
Experimental: The compounds of formula (I) of the present invention have utility as MCR4 agonists in the treatment of various disease states.
MC5 and MC4 EC50 activity was determined as described by assay protocols D and E, respectively, in US2005/0176772 (pages 28-30).

human MC3 receptors = target: T1, human MC3 receptors (Homo sapiens, UniProt P41968); experiment: In vitro agonist potency (EC50) at melanocortin receptor type 3, cAMP in recombinant cell line; assay type: cell-based
T1 construct: stably transfected with full length cDNA encoding human MC1 or MC3 receptors; expressed in transfected cells
T1 sequence (P41968 whole entry): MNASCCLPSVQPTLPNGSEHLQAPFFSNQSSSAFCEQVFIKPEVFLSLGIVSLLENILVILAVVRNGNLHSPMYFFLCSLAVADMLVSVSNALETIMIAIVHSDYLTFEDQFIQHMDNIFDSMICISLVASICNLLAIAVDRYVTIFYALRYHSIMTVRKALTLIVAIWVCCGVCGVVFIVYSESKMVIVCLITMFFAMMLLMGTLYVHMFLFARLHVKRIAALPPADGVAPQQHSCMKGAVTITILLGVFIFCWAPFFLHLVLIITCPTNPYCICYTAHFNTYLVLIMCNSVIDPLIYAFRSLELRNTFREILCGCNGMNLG
Experimental: Measurement of In Vitro Agonist Potency (EC50) of Compounds Against Melanocortin Receptors Type 1 and 3 (MC1 and MC3).
Activation of melanocortin (MC) receptors by agonists results in activation of intracellular adenylate cyclase enzymes that synthesise the second messenger signalling molecule, adenosine 3′,5′-cyclic monophosphate (cAMP). Changes in cAMP levels following treatment of recombinant MC1 and MC3 cell lines with test compound were measured and an MC1 and MC3 potency estimate (EC50) calculated as follows: […]
Human embryonic kidney (HEK) or Chinese hamster ovary cell lines stably transfected with full length cDNA encoding human MC1 or MC3 receptors, respectively, were established using standard molecular biology methods. Test compounds were dissolved in dimethyl sulfoxide (DMSO) at 4 mM. 11 point half log unit increment dilution series of test compound, typically starting at 50 uM were prepared in a buffer comprised of phosphate buffered saline (PBS), 2.5% DMSO and 0.05% pluronic F-127 surfactant. Freshly cultured cells at 80-90% confluence were harvested and re-suspended in Dulbecco's Modified Eagle's Medium (DMEM). Cells (10,000 for MC3, 20,000 for MC1) were added to the test compound dilution series in a 384 well assay plate and incubated for 1 hour at 37° C. The relative cAMP concentration in each well was then measured using a β-galactosidase enzyme fragment complementation method purchased in kit form as the Discoverx cAMP II kit from GE Healthcare/Amersham Biosciences UK. In the case of MC1,3-Isobutyl-1-methylxanthine (IBMX) at a concentration of 750 μM was included in DMEM as the cells were re-suspended for assay. […] Sigmoidal curves were fitted to plots of log10 inhibitor concentration vs percent effect using a custom made software application called SIGHTS and EC50 estimates determined by the software as the concentration of test compound giving an effect half way between the bottom and top asymptotes of the sigmoidal dose response curve. Each experiment included an EC50 determination for alpha melanocyte stimulating hormone, which was used as a standard to track assay consistency and allow fair comparison between EC50 estimates obtained in different experiments.

[1] = In vitro metabolism rate determination, human liver microsome (HLM) assay; assay type: in vitro ADME; settings: for microsomal CLint at 1 μM: human, liver microsomes, read-out: HLM: Clint, app; for HLM: Clint, app: human liver microsomes, unit assumed
Summary of the method: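 Human liver microsomes at 0.5 nmol cytochrome P450/ml with 1 μM substrate, pre-warmed 5 min at 37° C, reaction started with NADP; samples taken 0–60 min and terminated. Substrate loss measured; first-order rate constant from log-linear regression converted to half-life or Clint (μl/min/mg protein).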

CYP3A4 = target: T2, CYP3A4 (Homo sapiens, UniProt P08684); experiment: High density DDI 3 μM cocktail screen in human liver microsomes, midazolam probe; assay type: in vitro ADME; settings: human, liver microsomes, probe midazolam, read-out: % inhibition 3A4 @ 3 μM
T2 construct: utilizes human liver microsomes together with isoform-specific clinical drug probes; from tissue; host or cells: human liver microsomes
T2 sequence (P08684 whole entry, canonical isoform): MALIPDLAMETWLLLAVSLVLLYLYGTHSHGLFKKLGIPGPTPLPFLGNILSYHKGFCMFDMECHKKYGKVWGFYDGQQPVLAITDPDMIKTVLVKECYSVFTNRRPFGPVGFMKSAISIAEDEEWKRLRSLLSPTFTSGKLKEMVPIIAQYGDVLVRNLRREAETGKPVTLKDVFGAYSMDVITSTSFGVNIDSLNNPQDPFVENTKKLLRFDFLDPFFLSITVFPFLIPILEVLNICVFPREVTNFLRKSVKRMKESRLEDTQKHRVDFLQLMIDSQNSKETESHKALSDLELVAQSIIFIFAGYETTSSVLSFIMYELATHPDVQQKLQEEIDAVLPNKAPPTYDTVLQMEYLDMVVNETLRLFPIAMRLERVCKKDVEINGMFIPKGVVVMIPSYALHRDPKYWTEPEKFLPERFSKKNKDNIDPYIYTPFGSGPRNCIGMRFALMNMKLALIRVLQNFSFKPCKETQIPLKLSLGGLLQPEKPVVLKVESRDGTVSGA
Summary of the method: (§1)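 Pooled human liver microsomes incubated with isoform-specific clinical probe substrates as a cocktail (midazolam for CYP3A4), with or without test compound at 3 μM. Metabolite formation followed over time by LC-MS/MS. Inhibition expressed as a single-point percentage.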

MC4 receptor (MC4R) = target: T3, MC4 receptor (MC4R) (Homo sapiens, UniProt P32245); experiment: Nle4, D-Phe7-α-MSH inhibition at the MC4 receptor (competition binding, SPA, CHO-CRE MC4R membranes)
T3 construct: expressed in transfected cells; host or cells: CHO-CRE MC4R cells (membranes)
T3 sequence (P32245 whole entry): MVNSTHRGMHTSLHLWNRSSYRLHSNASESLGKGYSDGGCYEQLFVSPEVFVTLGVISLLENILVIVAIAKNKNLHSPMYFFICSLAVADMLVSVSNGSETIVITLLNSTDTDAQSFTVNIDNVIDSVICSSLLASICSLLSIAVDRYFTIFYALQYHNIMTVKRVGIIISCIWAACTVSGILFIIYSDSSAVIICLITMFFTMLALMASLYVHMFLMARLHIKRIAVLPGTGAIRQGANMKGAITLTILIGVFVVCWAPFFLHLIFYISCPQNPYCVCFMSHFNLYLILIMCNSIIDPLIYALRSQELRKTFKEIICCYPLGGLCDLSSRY
Excerpt: Nle4, D-Phe7-α-MSH Inhibition at the MC4 Receptor
Nle4, D-Phe7-α-MSH is a stable analogue of melanocyte-stimulating hormone (MSH), which is an agonist at the MC4 receptor (MC4R). Compounds can be evaluated for their ability to inhibit Nle4, D-Phe7-α-MSH binding to membranes from cells expressing the MC4R using a competition binding assay versus [^125I] Nle4, D-Phe7-α-MSH.
Cells expressing the MC4R were subject to homogenisation and the membrane fragment isolated by differential centrifugation. CHO-CRE MC4R cell membranes were coupled to PVT-PEI-WGA SPA Beads type A for 2 hours, spun at 1000 RPM for 5 min and suspended to a concentration of 300 ug bead/ml (0.15 ug membrane, 15 ug bead per well). Bead/membrane mix was incubated with 0.06 nM [^125I] Nle4, D-Phe7-α-MSH and 11 half-log concentrations of competitor ligand, in duplicate, in a total volume of 50 μl buffer per well (25 mM HEPES, 1 mM MgCl2, 2.5 mM CaCl2, 1% Pluronic F68, 1 complete EDTA protease inhibitor tablet/50 ml pH7). Non-specific binding was determined by the inclusion of 100 nM SHU9119. The reaction was initiated by the addition of bead/membranes and plates were incubated at room temperature for 12 hours (the first hour on a plate shaker), after which the amount of radioactivity present was determined using a Wallac plate counter. Ki values were determined by data analysis using appropriate software.

cytochrome P450 3A4 = target: T4, cytochrome P450 3A4 (Homo sapiens, UniProt P08684); experiment: High density DDI 3 μM cocktail screen in human liver microsomes, midazolam probe; assay type: in vitro ADME; settings: 3 µM
T4 construct: utilizes human liver microsomes together with isoform-specific clinical drug probes; from tissue; host or cells: human liver microsomes
T4 sequence (P08684 whole entry, canonical isoform): as the sequence (P08684 whole entry, canonical isoform) above
Summary of the method: as §1

MC3 receptor (MC3R) = target: T5, MC3 receptor (MC3R) (Homo sapiens, UniProt P41968); experiment: Nle4, D-Phe7-α-MSH inhibition at the MC3 receptor (competition binding, SPA, CHO-CRE MC3R membranes)
T5 construct: expressed in transfected cells; host or cells: CHO-CRE MC3R cells (membranes)
T5 sequence (P41968 whole entry): as the sequence (P41968 whole entry) above
Summary of the method: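 Competition binding by SPA used CHO-CRE MC3R membranes on WGA beads with 0.06 nM [125I]Nle4,D-Phe7-α-MSH and 11 half-log competitor concentrations. Buffer was 25 mM HEPES, MgCl2, CaCl2, 1% Pluronic F68, pH7, incubated 12 h at room temperature. Non-specific binding was defined with 100 nM SHU9119, and Ki values were derived.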

MC4 receptor, sequence (P32245 whole entry): as the sequence (P32245 whole entry) above

CS(=O)(=O)N1CCN(C(=O)[C@@H]2CN(c3cccnn3)C[C@H]2c2ccc(F)cc2F)CCCC1c1ccc(Cl)cc1 (mixture of isomers) [Example 41]
EC50 (MC4 receptor): 25.1 nM
EC50 (human MC3 receptors): 6670 nM
microsomal CLint at 1 μM [1]: 41 µL/min/mg
inhibition at 3 µM (CYP3A4): 88%

COC(=O)N1CCN(C(=O)[C@@H]2CN(c3cccnn3)C[C@H]2c2ccc(F)cc2F)CCCC1c1ccccc1 (mixture of isomers) [Example 100]
EC50 (MC4 receptor): 7.16 nM
EC50 (human MC3 receptors): 436 nM
microsomal CLint at 1 μM [1]: 83 µL/min/mg
inhibition at 3 µM (CYP3A4): 65.5%
Ki (MC4 receptor (MC4R)): 189 nM

CS(=O)(=O)N1CCN(C(=O)[C@@H]2CN(c3ccc(C#N)cn3)C[C@H]2c2ccc(F)cc2F)CCCC1c1ccccc1 (single isomer, unassigned) [Example 39]
EC50 (MC4 receptor): 38 nM
EC50 (human MC3 receptors): 942 nM
microsomal CLint at 1 μM [1]: 177 µL/min/mg
inhibition at 3 µM (CYP3A4): 87.5%

CS(=O)(=O)N1CCN(C(=O)[C@@H]2CN(c3ccc(C#N)cn3)C[C@H]2c2ccc(F)cc2F)CCCC1c1ccccc1 (single isomer, unassigned) [Example 40]
EC50 (MC4 receptor): 29 nM
EC50 (human MC3 receptors): 607 nM
HLM: Clint, app [1]: 156 µL/min/mg
% inhibition 3A4 @ 3 μM (cytochrome P450 3A4): 79.5%

COc1ccc([C@@H]2CN(c3ccc(=O)[nH]n3)C[C@H]2C(=O)N2CCCC(c3ccc(Cl)cc3)N(S(C)(=O)=O)CC2)c(F)c1 (single isomer, unassigned) [Example 114]
EC50 (MC4 receptor): 73.4 nM
HLM: Clint, app [1]: 16.4 µL/min/mg
% inhibition 3A4 @ 3 μM (cytochrome P450 3A4): 27.5%
Ki (MC4 receptor (MC4R)): 20.8 nM
Ki (MC3 receptor (MC3R)): 1150 nM

CC(C)CC(=O)N1CCN(C(=O)[C@@H]2CN(C(C)(C)C)C[C@H]2c2ccc(F)cc2F)CCC[C@H]1c1ccc(Cl)cc1 [Example 16]
EC50 (MC4 receptor): 18.5 nM
microsomal CLint at 1 μM [1]: 92.6 µL/min/mg
inhibition at 3 µM (CYP3A4): 55.5%
Ki (MC4 receptor (MC4R)): 378 nM
Ki (MC3 receptor (MC3R)): 2100 nM

CC(C)(C)N1C[C@@H](C(=O)N2CCC[C@@H](c3ccc(Cl)cc3)N(C(=O)C3CCCC3)CC2)[C@H](c2ccc(F)cc2F)C1 [Example 17]
EC50 (MC4 receptor): 43.3 nM
microsomal CLint at 1 μM [1]: 118 µL/min/mg
inhibition at 3 µM (CYP3A4): 66.9%
Ki (MC4 receptor (MC4R)): 513 nM
Ki (MC3 receptor (MC3R)): 2780 nM

COc1ccc([C@@H]2CN(c3ccc(=O)n(C)n3)C[C@H]2C(=O)N2CCC[C@@H](c3ccc(Cl)cc3)N(C(=O)C3CC3)CC2)c(F)c1 [Example 29]
EC50 (MC4 receptor): 2.23 nM
EC50 (human MC3 receptors): 506 nM
microsomal CLint at 1 μM [1]: 21.4 µL/min/mg
inhibition at 3 µM (CYP3A4): 60.8%

COc1ccc([C@@H]2CN(c3ccc(=O)n(C)n3)C[C@H]2C(=O)N2CCC[C@@H](c3ccc(Cl)cc3)N(C(=O)C(C)C)CC2)c(F)c1 [Example 31]
EC50 (MC4 receptor): 1.23 nM
EC50 (human MC3 receptors): 412 nM
microsomal CLint at 1 μM [1]: 21.8 µL/min/mg
inhibition at 3 µM (CYP3A4): 40.8%
Ki (MC4 receptor (MC4R)): 28.2 nM

CN(C)C(=O)N1CCN(C(=O)[C@@H]2CN(c3ccc(C#N)nn3)C[C@H]2c2ccc(Cl)cn2)CCC[C@H]1c1ccc(Cl)cc1 [Example 45]
EC50 (MC4 receptor): 10.8 nM
microsomal CLint at 1 μM [1]: 234 µL/min/mg
inhibition at 3 µM (CYP3A4): 75.8%
Ki (MC4 receptor (MC4R)): 121 nM
Ki (MC3 receptor (MC3R)): 101 nM

COC(=O)N1CCN(C(=O)[C@@H]2CN(c3ccc(=O)[nH]n3)C[C@H]2c2ccc(OC)cc2F)CCC[C@H]1c1ccc(Cl)cc1 [Example 69, methyl 8S-(4-chlorophenyl)-4-{[(3S,4R)-4-(2-fluoro-4-methoxyphenyl)-1-(6-oxo-1,6-dihydropyridazin-3-yl)pyrrolidin-3-yl]carbonyl}-1,4-diazocane-1-carboxylate]
EC50 (MC4 receptor): 7.6 nM
microsomal CLint at 1 μM [1]: 8 µL/min/mg
inhibition at 3 µM (CYP3A4): 53%
Ki (MC4 receptor (MC4R)): 16.4 nM
Ki (MC3 receptor (MC3R)): 990 nM

COC(=O)N1CCN(C(=O)[C@@H]2CN(C(C)(C)C)C[C@H]2c2ccc(OC)cc2F)CCC[C@H]1c1ccc(Cl)cc1 [Example 71]
EC50 (MC4 receptor): 55.4 nM
microsomal CLint at 1 μM [1]: 43.4 µL/min/mg
inhibition at 3 µM (CYP3A4): 49.5%
Ki (MC4 receptor (MC4R)): 1050 nM
Ki (MC3 receptor (MC3R)): 10300 nM

COC(=O)N1CCN(C(=O)[C@@H]2CN(c3ccc(C#N)nn3)C[C@H]2c2ccc(OC)cc2F)CCC[C@@H]1c1ccc(Cl)cc1 [Example 88]
EC50 (MC4 receptor): 5.38 nM
EC50 (human MC3 receptors): 148 nM
Ki (MC4 receptor (MC4R)): 24 nM
Ki (MC3 receptor (MC3R)): 153 nM

COC(=O)N1CCN(C(=O)[C@@H]2CN(c3ccc(C#N)nn3)CC2c2ccc(OC)cc2F)CCC[C@H]1c1ccc(Cl)cc1 (stereo partly shown) [Example 89]
EC50 (MC4 receptor): 14.3 nM
EC50 (human MC3 receptors): 764 nM
Ki (MC4 receptor (MC4R)): 31.3 nM
Ki (MC3 receptor (MC3R)): 402 nM

COC(=O)N1CCN(C(=O)[C@@H]2CN(c3ccc(C#N)nn3)C[C@H]2c2ccc(Cl)cn2)CCC[C@H]1c1ccc(Cl)cc1 [Example 98, methyl 8S-(4-chlorophenyl)-4-{[(3S,4S)-4-(5-chloropyridin-2-yl)-1-(6-cyanopyridazin-3-yl)pyrrolidin-3-yl]carbonyl}-1,4-diazocane-1-carboxylate]
EC50 (MC4 receptor): 5.26 nM
microsomal CLint at 1 μM [1]: 13.9 µL/min/mg
inhibition at 3 µM (CYP3A4): 46.9%
Ki (MC4 receptor (MC4R)): 52 nM
Ki (MC3 receptor (MC3R)): 201 nM

CS(=O)(=O)N1CCN(C(=O)[C@@H]2CN(c3ccc(C#N)nn3)C[C@H]2c2ccc(Cl)cn2)CCC[C@H]1c1ccc(Cl)cc1 [Example 102]
EC50 (MC4 receptor): 12 nM
microsomal CLint at 1 μM [1]: 16 µL/min/mg
inhibition at 3 µM (CYP3A4): 65%
Ki (MC4 receptor (MC4R)): 174 nM
Ki (MC3 receptor (MC3R)): 545 nM

COc1ccc([C@@H]2CN(c3ccc(Cl)nn3)C[C@H]2C(=O)N2CCCC(c3ccc(Cl)cc3)N(S(C)(=O)=O)CC2)c(F)c1 (stereo partly drawn) [Example 108, [5-(4-chlorophenyl)-4-(methylsulfonyl)-1,4-diazocan-1-yl]-[(3S,4R)-1-(6-chloro-pyridazine-3-yl)-4-(2-fluoro-4-methoxyphenyl)-pyrrolidin-3-yl]-methanone]
EC50 (MC4 receptor): 123 nM
microsomal CLint at 1 μM [1]: 59 µL/min/mg
inhibition at 3 µM (CYP3A4): 63.5%
Ki (MC4 receptor (MC4R)): 180 nM
Ki (MC3 receptor (MC3R)): 875 nM
